According to BindingDB's records for doi:10.1016/j.bmcl.2014.03.095 (University of Utah, 2014):

Target: Elongin-B/Elongin-C/von Hippel-Lindau disease tumor suppressor (Homo sapiens, UniProt P40337+Q15370+Q15369)
Assay: Displacement of FAM-DEALAHyp-YIPD from 6xHis-tagged VHL (1 to 213)/elongins-B/elonginC (unknown origin) expressed in Escherichia coli BL21 after 1 min by fluorescence polarization assay

Elongin-B/Elongin-C/von Hippel-Lindau disease tumor suppressor, sequence (P40337 whole entry, looked up): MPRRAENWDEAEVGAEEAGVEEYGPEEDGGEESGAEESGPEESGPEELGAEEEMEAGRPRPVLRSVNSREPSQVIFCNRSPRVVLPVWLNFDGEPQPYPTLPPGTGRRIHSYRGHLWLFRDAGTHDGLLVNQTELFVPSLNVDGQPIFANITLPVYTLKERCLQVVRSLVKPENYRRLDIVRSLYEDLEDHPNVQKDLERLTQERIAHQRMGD
Elongin-B/Elongin-C/von Hippel-Lindau disease tumor suppressor, sequence (Q15369 whole entry, looked up): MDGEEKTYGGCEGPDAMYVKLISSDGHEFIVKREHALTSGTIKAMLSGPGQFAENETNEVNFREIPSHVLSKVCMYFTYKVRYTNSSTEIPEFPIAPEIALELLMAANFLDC
Elongin-B/Elongin-C/von Hippel-Lindau disease tumor suppressor, sequence (Q15370 whole entry, looked up): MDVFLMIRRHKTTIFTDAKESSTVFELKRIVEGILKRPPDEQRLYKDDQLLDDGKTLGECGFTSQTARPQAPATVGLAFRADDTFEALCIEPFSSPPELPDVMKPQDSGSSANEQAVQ

`Cc1cc(CC(=O)N2C[C@H](O)C[C@H]2C(=O)NCc2cccc(Cl)c2)on1` was tested, and the IC50 was 117 µM.
